Results: patent publication US11661420B2 (NANJING HEPO PHARMACEUTICAL CO., LTD, priority 2019, dated 2023)
Read-outs that look alike come from different tables or passages of the source.

Assays:
[1] = system: HBsAg; conditions: cited from earlier work
[2] = read-out: CC50 cytotoxicity; cited from earlier work
[3] = system: HBV DNA; conditions: cited from earlier work
[4] = system: HBV surface antigen (HBsAg); assay: Cryopreserved PHH assay, ELISA of hepatitis B surface antigen in culture supernatant; type: cell-based, type D HBV in human primary hepatocytes (PHH); conditions: Hepatitis B virus, 240 h, read-out: HBsAg EC50
Procedure: (§1) The inhibitory effect of the compounds on HBV was evaluated by real-time quantitative qPCR assay (real time-qPCR) to detect the HBV DNA content in human primary hepatocytes (PHH) culture supernatant, and ELISA to detect the hepatitis B surface antigen and e antigen content, the EC50 value of the compounds was used as an indicator; meanwhile, the cell viability was detected by CellTiter-Glo to evaluate the toxicity of the compounds to cells.
(§2) 3.1. On day 0, PHH (1.32×10^5 cells/well) was seeded into a 48-well plate and incubated overnight at 37° C., 5% CO2.
(§3) 3.2. On the first day, PHH was infected with type D HBV (concentrated from HepDE19 cell culture supernatant).
(§4) 3.3 On the second day, the test compound was diluted to 7 concentrations with 5-fold serial dilution. Reference compound Peg-IFN-α 2a, 7 concentrations with 3-fold serial dilution. Compounds with different concentrations were added to the culture wells, and the wells were double-duplicated wells. The final concentration of DMSO in the culture medium was 2%.
(§5) 3.4 On the 4th, 6th, and 8th day, the culture medium was replaced by a fresh culture medium containing the compound.
(§6) 3.5 After collecting the culture supernatant from the culture well on the 10th day, the cell viability was tested with CellTiter-Glo. A portion of the culture supernatant was collected for ELISA determination to detect the content of hepatitis B virus surface antigen and e antigen; a portion of the sample was collected for extract DNA using a high-throughput DNA purification kit, referring to the product instructions for the specific steps.
(§7) 3.7 ELISA determination of hepatitis B virus surface antigen and e antigen
(§8) The specific steps can be referred to the product manual, the steps are briefly described as follows: 50 μL of sample and standard was added to the reaction plate respectively, 50 μL of enzyme conjugate was added to each well, the mixture was shaken and mixed well, then kept in a warm bath at 37° C. for 60 minutes, the plate was washed with washing solution for 5 times, 50 μL of the luminescent substrate was added to each well, the mixture was mixed well, and the reaction was carried out in the dark at room temperature for 10 minutes, and finally the chemiluminescence intensity was detected with the instrument.
(§9) Calculation of the inhibition percentage of HBV DNA, HBV surface antigen and e antigen. % Inh.=(1−value of the sample/value of DMSO control)×100.

[5] = system: HBV DNA; assay: Cryopreserved PHH assay, real-time qPCR of HBV DNA in culture supernatant; type: cell-based, type D HBV in human primary hepatocytes (PHH); conditions: Hepatitis B virus, 240 h; PHH infected with type D HBV, supernatant day 10, qPCR
Procedure: as §1, §2, §3, §4, §5, §6
3.6 Quantitative PCR to detect the content of HBV DNA
The qPCR reaction mixture, sample and standard were added to the 384 well reaction plate. PCR reactions: 95° C., 10 min; 95° C., 15 sec, 60° C., 1 min, 40 cycles.
as §9

[6] = system: HBV e antigen (HBeAg); assay: Cryopreserved PHH assay, ELISA of hepatitis B e antigen in culture supernatant; type: cell-based, type D HBV in human primary hepatocytes (PHH); conditions: Hepatitis B virus, 240 h, read-out: HBeAg EC50
Procedure: as §1, §2, §3, §4, §5, §6, §7, §8, §9

[7] = Cryopreserved PHH assay, cell viability by CellTiter-Glo; type: cell-based; conditions: human, cryopreserved primary human hepatocytes (PHH), day 10, CellTiter-Glo
Procedure: as §1, §2, §4, §5, §6
Calculation of the percentage of cell viability: % viability=the luminescence value of the sample/the luminescence value of the DMSO control×100.

Row | Structure (SMILES) | EC50 [1] | CC50 [2] | EC50 [3] | EC50 [4] | EC50 [5] | EC50 [6] | CC50 at 8 days [7]
1 | Clc1cc2nc(N3CCN(c4ccccn4)CC3)[nH]c2cc1Cl [BM601] | 1500 nM | 24500 nM | 600 nM |  |  |  | 
2 | CC1(C)N=C(c2cc(-c3ccc(C(=O)O)cc3)c[nH]2)Nc2c(Cl)cccc21 [Compound I-51, 4-(5-(8-chloro-4,4-dimethyl-1,4-dihydroquinazolin-2-yl)-1H-pyrrol-3-yl)benzoic acid] |  |  |  | > 50000 nM | 9.7 nM | 10 nM | > 50000 nM
3 | CC1(C)N=C(c2nc(-c3ccc(C(=O)O)cc3)co2)Nc2c(Cl)cccc21 [Compound I-53, 4-(2-(8-chloro-4,4-dimethyl-1,4-dihydroquinazolin-2-yl)oxazol-4-yl)benzoic acid] |  |  |  | 115 nM | 8.4 nM | 5.6 nM | > 50000 nM
4 | CC1(C)N=C(c2nc(-c3ccc(C(=O)O)cc3)c[nH]2)Nc2ccccc21 [Compound I-54, 4-(2-(4,4-dimethyl-1,4-dihydroquinazolin-2-yl)-1H-imidazol-4-yl)benzoic acid] |  |  |  | 326 nM | 25 nM | 41 nM | > 50000 nM
5 | CC1(C)N=C(c2nc(-c3ccc(C(=O)O)cc3)cs2)Nc2c(OC(F)(F)F)cccc21 [Compound I-65, 4-(2-(4,4-dimethyl-8-trifluoromethoxyl-1,4-dihydroquinazolin-2-yl)thiazol-4-yl)benzoic acid] |  |  |  | 39.5 nM | 3 nM | 3.3 nM | > 50000 nM
6 | CC1(C)N=C(c2nc(-c3ccc(C(=O)NS(C)(=O)=O)cc3)cs2)Nc2ccccc21 [Compound I-66] |  |  |  | 369 nM | 30.4 nM | 31.7 nM | > 50000 nM
7 | CC1(C)OC(c2nc(-c3ccc(C(=O)O)cc3)cs2)=Nc2ccccc21 [Compound I-67, 4-(2-(4,4-dimethyl-4H-benzo[d] [1,3]oxazin-2-yl)thiazol-4-yl)benzoic acid] |  |  |  | 147 nM | 17.9 nM | 4.2 nM | > 50000 nM
8 | CC1(C)N=C(c2nc(-c3ccc(C(=O)O)cc3)cs2)Oc2ccccc21 [Compound I-68, 4-(2-(4,4-dimethyl-4H-benzo[e] [1,3]oxazin-2-yl)thiazol-4-yl)benzoic acid] |  |  |  | 582 nM | 81.1 nM | 17 nM | > 50000 nM
9 | CCC1(CC)N=C(c2nc(-c3ccc(C(=O)O)cc3)cs2)Nc2ccccc21 [Compound I-69, 4-(2-(4,4-diethyl-1,4-dihydroquinazolin-2-yl)thiazol-4-yl)benzoic acid] |  |  |  | 56.3 nM | 17.1 nM | 11.3 nM | > 50000 nM
10 | CC1(C)N=C(c2nc(-c3ccc(C(=O)O)cc3)cs2)Nc2c(F)cc(F)cc21 [Compound I-70, 4-(2-(6,8-difluoro-4,4-dimethyl-1,4-dihydroquinazolin-2-yl)thiazol-4-yl)benzoic acid] |  |  |  | 40.7 nM | 7.12 nM | 5.2 nM | > 50000 nM
11 | CC1(C)N=C(c2nc(-c3ccc(C(N)=O)cc3)cs2)Nc2ccccc21 [Compound I-71, 4-(2-(4,4-dimethyl-1,4-dihydroquinazolin-2-yl)thiazol-4-yl)benzamide] |  |  |  | 92.4 nM | 31.6 nM | 14.7 nM | > 50000 nM
12 | CC1(C)N=C(c2nc(-c3ccc(-c4nnn[nH]4)cc3)cs2)Nc2ccccc21 [Compound I-72] |  |  |  | 17500 nM | 8090 nM | 8050 nM | > 50000 nM
13 | CCOC(=O)c1ccc(-c2csc(C3=NC(C)(C)c4ccccc4N3)n2)cc1 [Compound I-73] |  |  |  | 115 nM | 13.4 nM | 12 nM | > 50000 nM
